Results as given in US7067665B2, “Oxybenzamide derivatives useful for inhibiting factor Xa or Vlla” (Sanofi-Aventis Deutschland GmbH, priority 2000, dated 2006).
Where two headings read alike, the source gives them in different places.

Target: T1, human factor Xa (Homo sapiens, UniProt P00742)
T1 construct: 25 μl human factor Xa (Enzyme Research Laboratories, Inc; South Bend, Ind.); purchased Enzyme Research Laboratories, Inc; South Bend, Ind
Assay: Factor Xa chromogenic assay (substrate S-2765);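 also: purified enzyme, compound preincubated with the enzyme for 10 min before substrate addition starts the reaction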
Type: biochemical
Settings: read-out: Ki(FXa)

[1] = inhibition constant for inhibition of factor Xa, IC50 corrected for substrate competition, 25° C., enzyme 0.5 nM, substrate 140 μM

T1 sequence (P00742 235-488 limits assumed): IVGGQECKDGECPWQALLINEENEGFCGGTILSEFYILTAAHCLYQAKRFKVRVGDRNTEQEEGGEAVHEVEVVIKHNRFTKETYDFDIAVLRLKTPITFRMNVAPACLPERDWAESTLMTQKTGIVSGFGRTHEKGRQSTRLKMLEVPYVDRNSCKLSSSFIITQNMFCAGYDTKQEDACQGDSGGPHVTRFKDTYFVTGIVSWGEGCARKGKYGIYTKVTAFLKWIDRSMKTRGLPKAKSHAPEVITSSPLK
T1 sequence (P00742 41-179 partner limits assumed): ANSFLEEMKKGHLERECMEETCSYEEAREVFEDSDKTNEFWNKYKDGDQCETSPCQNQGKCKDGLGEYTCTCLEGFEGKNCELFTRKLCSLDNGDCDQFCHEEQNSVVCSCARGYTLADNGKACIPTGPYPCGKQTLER

Ki [1] | Ki | SMILES
1.13 µM |  | COc1ccc(C(=O)NCC2CC(c3ccncc3)=NO2)cc1OCCc1ccc(Cl)cc1Cl (stereo not drawn) [Example 24, 3-[2-(2,4-Dichloro-phenyl)-ethoxy]-4-methoxy-N-(3-pyridin-4-yl-4,5-dihydro-isoxazol-5-ylmethyl)-benzamide]
0.96 µM |  | COc1ccc(C(=O)NCC2CC(c3cc[n+]([O-])cc3)=NO2)cc1OCCc1ccc(Cl)cc1Cl (stereo not drawn) [Example 28, 3-[2-(2,4-Dichloro-phenyl)-ethoxy]-N-[3-(1-hydroxy-pyridin-4-yl)-4,5-dihydro-isoxazol-5-ylmethyl]-4-methoxy-benzamide]
9.34 µM |  | COc1ccc(C(=O)NCC2CCC(CN)CC2)cc1OCCc1ccc(Cl)cc1Cl (stereo not drawn) [Example 31, N-(4-Aminomethyl-cyclohexylmethyl)-3-[2-(2,4-dichloro-phenyl)-ethoxy]-4-methoxy-benzamide]
6.52 µM |  | COc1ccc(C(=O)NCC2CCN(C3CCCC3)CC2)cc1OCCc1ccc(Cl)cc1Cl [Example 54, N-(1-Cyclopentyl-piperidin-4-ylmethyl)-3-[2-(2,4-dichloro-phenyl)-ethoxy]-4-methoxy-benzamide]
4.33 µM |  | COc1ccc(C(=O)NCC2CCN(C3CCCCC3)CC2)cc1OCCc1ccc(Cl)cc1Cl [Example 56]
6.22 µM |  | COc1ccc(C(=O)NCC2CCN(C3CCCCCC3)CC2)cc1OCCc1ccc(Cl)cc1Cl [Example 57]
1.48 µM |  | COc1ccc(C(=O)NCC2CCN(c3cc[n+]([O-])cc3)CC2)cc1OCCc1ccc(Cl)cc1Cl [Example 66]
3.04 µM |  | COc1ccc(C(=O)NCC2CCN(c3ccccn3)CC2)cc1OCCc1ccc(Cl)cc1Cl [Example 68, 3-[2-(2,4-Dichloro-phenyl)-ethoxy]-4-methoxy-N-(3,4,5,6-tetrahydro-2H-[1,2′]bipyridinyl-4-ylmethyl)-benzamide]
 | 0.241 µM | O=C(NCC1CCN(c2ccncc2)CC1)c1cc(OCCc2ccc(Cl)cc2Cl)ccc1Cl [Example 81]
4.88 µM |  | O=C(NCC1CCN(c2ccncc2)CC1)c1cc(OCCc2ccc(Cl)cc2Cl)ccc1[N+](=O)[O-] [Example 84]
 | 0.304 µM | O=C(NCC1CCN(c2ccncc2)CC1)c1cccc(OCCc2ccc(Cl)cc2Cl)n1 [Example 85]
 | 0.026 µM | O=C(NCC1CCN(c2ccncc2)CC1)c1cc(O)c(Br)c(OCCc2ccc(Cl)cc2Cl)c1 [Example 86]
 | 0.07 µM | O=C(NCC1CCN(c2ccncc2)CC1)c1cncc(OCCc2ccc(Cl)cc2Cl)c1 [Example 87]
 | 1.39 µM | O=C(Nc1cccc(C(=O)NCC2CCN(c3ccncc3)CC2)c1)Nc1ccc(Cl)cn1 [Example 91, 3-[3-(5-Chloro-pyridin-2-yl)-ureido]-N-(3,4,5,6-tetrahydro-2H-[1,4′]bipyridinyl-4-ylmethyl)-benzamide]
 | 0.188 µM | COc1ccc(C(=O)NCC2CCN(c3ccncc3)CC2)cc1OCc1cc(-c2ccc(Cl)s2)on1 [Example 93, 3-[5-(5-Chloro-thiophen-2-yl)-isoxazol-3-ylmethoxy]-4-methoxy-N-(3,4,5,6-tetrahydro-2H-[1,4′]bipyridinyl-4-ylmethyl)-benzamide]
 | 0.76 µM | COc1ccc(C(=O)NCC2CCN(c3ccncc3)CC2)cc1Oc1nc2ccc(Cl)cc2s1 [Example 94]
 | 3.5 µM | COc1ccc(C(=O)NCC2CCN(c3ccncc3)CC2)cc1NS(=O)(=O)c1cc2ccc(Cl)cc2s1 [Example 97, 3-(6-Chloro-benzo[b]thiophene-2-sulfonylamino)-4-methoxy-N-(3,4,5,6-tetrahydro-2H-[1,4′]bipyridinyl-4-ylmethyl)-benzamide]
 | 3.71 µM | O=C(NCC1CCN(c2ccncc2)CC1)c1cccc(S(=O)(=O)Nc2ccc(Cl)cn2)c1 [Example 99, 3-(5-Chloro-pyridin-2-ylsulfamoyl)-N-(3,4,5,6-tetrahydro-2H-[1,4′]bipyridinyl-4-ylmethyl)-benzamide]
 | 0.298 µM | COc1ccc(C(=O)NCC2CCN(c3ccncc3)CC2)cc1NC(=O)Cc1ccc(Cl)cc1Cl [Example 100, 3-[2-(2,4-Dichloro-phenyl)-acetylamino]-4-methoxy-N-(3,4,5,6-tetrahydro-2H-[1,4′]bipyridinyl-4-ylmethyl)-benzamide]
 | 0.636 µM | O=C(NCC1CCN(c2ccncc2)CC1)c1cc(OCCc2ccc(Cl)cc2Cl)c[n+]([O-])c1 [Example 102, 5-[2-(2,4-Dichloro-phenyl)-ethoxy]-1-oxy-N-(3,4,5,6-tetrahydro-2H-[1,4′]bipyridinyl-4-ylmethyl)-nicotinamide]
 | 40.9 µM | COc1ccc(C(=O)NC2CCN(C3CCCCC3)CC2)cc1OCCc1ccc(Cl)cc1Cl [Example 128, N-(1-Cyclohexyl-piperidin-4-yl)-3-[2-(2,4-dichloro-phenyl)-ethoxy]-4-methoxy-benzamide]
 | 25.2 µM | COc1ccc(C(=O)NC2CCN(C3CCOCC3)CC2)cc1OCCc1ccc(Cl)cc1Cl [Example 129]
 | 69.5 µM | COc1ccc(C(=O)NCC2CCN(c3ccncc3)CC2)cc1OCC1(c2ccc(Cl)cc2)CC1 [Example 140]

Ki [1] | Ki | SMILES
 | 0.591 µM | COc1ccc(C(=O)NCC2CCN(c3ccncc3)CC2)cc1OCCc1ccc(Cl)nc1 [Example 145]
 | 0.277 µM | Cc1cc(N2CCC(CNC(=O)c3ccc(Cl)c(OCCc4ccc(Cl)nc4)c3)CC2)ccn1 [Example 167, 4-Chloro-3-[2-(6-chloro-pyridin-3-yl)-ethoxy]-N-(2′-methyl-3,4,5,6-tetrahydro-2H-[1,4′]bipyridinyl-4-ylmethyl)-benzamide]
 | 0.024 µM | COc1cc(C(=O)NCC2CCN(c3ccnc(C)c3)CC2)cc(OCCc2ccc(Cl)cc2Cl)c1Cl [Example 168]
 | 0.13 µM | COc1ccc(C(=O)NCC2CCN(c3ccnc(C)c3)CC2)cc1OCCc1ccc(Cl)cc1 [Example 171]
 | 6.45 µM | Cc1ccc(C(=O)NCC2CCN(c3ccnc(Cl)n3)CC2)cc1OCCc1ccc(Cl)cc1Cl [Example 172, N-[1-(2-Chloro-pyrimidin-4-yl)-piperidin-4-ylmethyl]-3-[2-(2,4-dichloro-phenyl)-ethoxy]-4-methyl-benzamide]
 | 0.365 µM | O=C(c1ccc(Br)c(OCCc2ccc(Cl)cc2Cl)c1)N1CCN(Cc2ccncc2)CC1 [Example 176, {4-Bromo-3-[2-(2,4-dichloro-phenyl)-ethoxy]-phenyl}-(4-pyridin-4-ylmethyl-piperazin-1-yl)-methanone]
 | 0.226 µM | CCOc1cc(C(=O)N2CCN(Cc3ccncc3)CC2)cc(OCCc2ccc(Cl)cc2Cl)c1OCC [Example 177, {3-[2-(2,4-Dichloro-phenyl)-ethoxy]-4,5-diethoxy-phenyl}-(4-pyridin-4-ylmethyl-piperazin-1-yl)-methanone]
 | 0.255 µM | CCOc1cc(C(=O)N2CCN(Cc3ccncc3)CC2)cc(OCCc2ccc(Cl)cc2Cl)c1Br [Example 180, {4-Bromo-3-[2-(2,4-dichloro-phenyl)-ethoxy]-5-ethoxy-phenyl}-(4-pyridin-4-ylmethyl-piperazin-1-yl)-methanone]
 | 0.312 µM | O=C(c1ccc(Cl)c(OCCc2ccc(Cl)cc2Cl)c1)N1CCN(Cc2ccncc2)CC1 [Example 182, {4-Chloro-3-[2-(2,4-dichloro-phenyl)-ethoxy]-phenyl}-(4-pyridin-4-ylmethyl-piperazin-1-yl)-methanone]
 | 0.617 µM | CC(C)Oc1ccc(C(=O)N2CCN(Cc3ccncc3)CC2)cc1OCCc1ccc(Cl)cc1Cl [Example 184, {3-[2-(2,4-Dichloro-phenyl)-ethoxy]-4-isopropoxy-phenyl}-(4-pyridin-4-ylmethyl-piperazin-1-yl)-methanone]
 | 0.401 µM | O=C(c1cc(OCCc2ccc(Cl)cc2Cl)c2c(c1)OCO2)N1CCN(Cc2ccncc2)CC1 [Example 186, {7-[2-(2,4-Dichloro-phenyl)-ethoxy]-benzo[1,3]dioxol-5-yl}-(4-pyridin-4-ylmethyl-piperazin-1-yl)-methanone]
 | 0.964 µM | O=C(c1ccc(Cl)c(OCCc2ccc(Cl)cc2Cl)c1)N1CCN(Cc2cc[n+](O)cc2)CC1 [Example 187, {4-Chloro-3-[2-(2,4-dichloro-phenyl)-ethoxy]-phenyl}-[4-(1-oxy-pyridin-4-ylmethyl)-piperazin-1-yl]-methanone]
 | 6.74 µM | COc1ccc(C(=O)N2CCN(CCCN(C)C)CC2)cc1OCCc1ccc(Cl)cc1Cl [Example 195]
 | 4.27 µM | COc1ccc(C(=O)N2CCCN(CCCN3CCCC3)CC2)cc1OCCc1ccc(Cl)cc1Cl [Example 196]
 | 6.03 µM | COc1ccc(C(=O)N2CCN(CCN(C)C)CC2)cc1OCCc1ccc(Cl)cc1Cl [Example 197]
 | 5 µM | COc1ccc(C(=O)N2CCN(CCN3CCCC3)CC2)cc1OCCc1ccc(Cl)cc1Cl [Example 198]
 | 0.108 µM | COc1cc(C(=O)N2CCN(Cc3ccncc3)CC2)cc(OCCc2ccc(Cl)cc2Cl)c1Cl [Example 200, {4-Chloro-3-[2-(2,4-dichloro-phenyl)-ethoxy]-5-methoxy-phenyl}-(4-pyridin-4-ylmethyl-piperazin-1-yl)-methanone]
0.025 µM |  | COc1cc(C(=O)NCC2CCN(c3ccncc3)CC2)cc(OCCc2ccc(Cl)cc2)c1Cl [Example 202, 4-Chloro-3-[2-(4-chloro-phenyl)-ethoxy]-5-methoxy-N-(3,4,5,6-tetrahydro-2H-[1,4′]bipyridinyl-4-ylmethyl)-benzamide]
 | 0.068 µM | O=C(NCC1CCN(c2ccncc2)CC1)c1ccc(Cl)c(OCCc2ccc(F)cc2Cl)c1 [Example 207]
 | 0.059 µM | O=C(NCC1CCN(c2ccncc2)CC1)c1ccc(F)c(OCCc2ccc(F)cc2Cl)c1 [Example 215]
 | 0.072 µM | COc1cc(C(=O)NCC2CCN(c3ccnc(C)c3)CC2)cc(OCCc2ccc(Cl)cc2)c1Cl [Example 222, 4-Chloro-3-[2-(4-chloro-phenyl)-ethoxy]-5-methoxy-N-(2′-methyl-3,4,5,6-tetrahydro-2H-[1,4′]bipyridinyl-4-ylmethyl)-benzamide]
 | 0.044 µM | Cc1cc(N2CCC(CNC(=O)c3ccc(Cl)c(OCCc4ccc(Cl)cc4)c3)CC2)ccn1 [Example 223, 4-Chloro-3-[2-(4-chloro-phenyl)-ethoxy]-N-(2′-methyl-3,4,5,6-tetrahydro-2H-[1,4′]bipyridinyl-4-ylmethyl)-benzamide]
